# Where a SMILES comes first, the peptide text is derived from it. Bridges are numbered along the chain shown (N, C = ends). [ ]: non-standard residue; d: D form. 2Abz = Nc1ccccc1C(=O)O; Dap = NC[C@H](N)C(=O)O
# Experiments:
# [1] = Metabolism by CYP450 in mouse liver microsomes (NADPH); assay type: in vitro ADME; settings: 3.07 μM, 0.5 mg/mL microsomes, 1 mM NADPH, 37 °C, 120 min
# Method: The metabolic stability of CycloAnt was then evaluated in mouse liver microsomes. CycloAnt at a final concentration of 3.07 μM was mixed with 0.5 mg/mL liver microsomes in the presence of 1 mM of NADPH and incubated at 37 °C for 2 h. At 0, 5, 15, 30, 60, and 120 min, incubation mixtures were withdrawn and processed. The supernatant was analyzed by LC-MS/MS. The percentage of CycloAnt remaining at each time point was calculated (Figure 3a).
# Metabolism by CYP450 in liver microsomes. CycloAnt dissolved in pH 7.2 PBS was diluted to 8 μM. Six hundred microliters of CycloAnt were incubated with 800 μL of 0.975 mg/mL mouse liver microsomes and 160 μL of 10 mM NADPH at 37 °C for 0, 5, 15, 30, 60, and 120 min. The final concentrations of CycloAnt, mouse liver microsomes, and NADPH in the incubation mixture were 3.07 μM, 0.5 mg/mL, and 1 mM, respectively. At the designated time points, 100 μL of the incubation mixture were withdrawn and mixed with 200 μL ice-cold acetonitrile containing internal standard (IS, Tyr-[D-Lys-Phe-Tyr-Gly]), followed by centrifugation at 10,000× g at 4 °C for 10 min. An aliquot of 250 μL of supernatant was collected and dried in vacuum. The dried sample was reconstituted in 100 μL of 20% acetonitrile and stored at −20 °C before analyzed by LC-MS/MS on the next day. The experiment was performed in duplicate.
# [2] = biological target: T1, human KOR (Homo sapiens, UniProt P41145); experiment: Opioid receptor radioligand binding assay ([3H]diprenorphine), KOR
# T1 construct: expressed in transfected cells
# T1 sequence (P41145 whole entry): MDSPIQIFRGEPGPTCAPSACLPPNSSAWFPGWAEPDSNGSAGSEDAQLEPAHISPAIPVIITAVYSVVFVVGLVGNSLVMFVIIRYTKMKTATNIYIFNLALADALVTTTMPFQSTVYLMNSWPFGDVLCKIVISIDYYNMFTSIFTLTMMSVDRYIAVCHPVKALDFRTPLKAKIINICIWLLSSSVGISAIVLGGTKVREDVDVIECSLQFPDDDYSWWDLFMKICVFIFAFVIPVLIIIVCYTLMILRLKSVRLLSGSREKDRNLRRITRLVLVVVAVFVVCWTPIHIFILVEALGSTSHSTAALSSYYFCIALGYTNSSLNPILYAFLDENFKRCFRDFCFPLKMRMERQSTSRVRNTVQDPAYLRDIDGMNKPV
# Method: CycloAnt is a lariat peptide that acts in vivo as a bifunctional MOR agonist and DOR antagonist, which was confirmed in our previous study using opioid receptor individually knock-out (OP KO) mice. In the current study, the binding affinities of CycloAnt to the three opioid receptors are determined using cell-based radioligand opioid receptor binding assays. […] At the KOR, CycloAnt at 1 μM inhibits 6% and at 10 μM inhibits 26% of [^3H]diprenorphine binding.
# Opioid receptor radioligand binding assay. Membranes of CHO cells stably expressing the rat MOR, mouse DOR, or human KOR were used in the experiments. [^3H]diprenorphine (PerkinElmer, Waltham, MA, at the time of experiment calculated to have specific activity 35 Ci/mmol) was used as the radioligand for the MOR, DOR, and KOR. Competition inhibition of [^3H]diprenorphine (0.3–0.4 nM) binding to the MOR or DOR was conducted in 50 mM Tris-HCl buffer (pH 7.4) with an adequate number of cell membranes for each receptor and […] of CycloAnt. […] Binding reactions were terminated by rapid filtration under vacuum over GF/B filters presoaked in 0.1% polyethyleneimine, and the bound radioactivity was counted by liquid scintillation counting. […] Binding data were analyzed using GraphPad Prism software (version 10.2.3) and IC50 values (the concentration necessary to inhibit 50 percent of radioligand binding) and Ki values were calculated. […]
# [3] = Metabolism by UGTs in mouse liver microsomes (UDPGA); assay type: in vitro ADME; settings: 3.07 μM, 0.5 mg/mL microsomes, alamethicin, 5 mM UDPGA, 37 °C, 60 min
# Method: Next, we examined the level of glucuronidation of CycloAnt in mouse liver microsomes using a method described elsewhere. CycloAnt at a final concentration of 3.07 μM was premixed with 0.5 mg/mL liver microsomes and a channel-forming peptide antibiotic alamethicin at 0 °C. After 15 min, the glucuronidation was initiated by adding the UDP-glucuronosyl transferases (UGTs) substrate uridine-5’-diphospho-α-D-glucuronic acid (UDPGA) to a final concentration of 5 mM and the mixture was incubated at 37 °C [19]. At 0, 5, 15, 30, and 60 min, the incubation mixture was withdrawn and processed. The supernatant was collected and analyzed by LC-MS/MS.
# Metabolism by UDP-glucuronosyl transferases (UGTs) in liver microsomes. CycloAnt dissolved in pH 7.2 PBS was diluted to 8 μM. Six hundred microliters of diluted CycloAnt, 800 μL of 0.975 mg/mL mouse liver microsomes, and 14 μL of 0.5 mM alamethicin containing 10 mM MgCl2, were mixed and preincubated on ice for 15 min. The reaction was then initiated by adding 74 μL of 100 mM uridine-5’-diphospho-α-D-glucuronic acid (UDPGA) and incubated at 37 °C for 0, 5, 15, 30, and 60 min. […] The dried sample was reconstituted in 100 μL of 20% acetonitrile and stored at −20 °C before analyzed by LC-MS/MS on the next day. […]
compound,measurement,setting,value
C[C@@H](O)[C@@H]1NC(=O)[C@H](CNC(=O)c2ccccc2N)NC(=O)[C@H](NC(=O)[C@@H](N)Cc2ccc(O)cc2)CCCCNC(=O)CNC1=O [CycloAnt] (H-Y[dK][Dap](2Abz)TG; lactam 2-C),stability in mouse liver microsomes with NADPH (CYP450),[1],no significant concentration change
same,inhibition at 1 µM,[2]; CycloAnt at 1 μM,6%
same,inhibition at 10 µM,[2]; CycloAnt at 10 μM,26%
same,stability against glucuronidation in mouse liver microsomes (UGTs),[3],stable against glucuronidation

# — publication PMC11546339, “Conformational Plasticity Enhances the Brain Penetration of a Metabolically Stable, Dual-Functional Opioid-Peptide CycloAnt” (International Journal of Molecular Sciences, 2024)
